Reference: ChEMBL document CHEMBL1201862, “PubChem BioAssay data set” (2004)
Calls of active or inactive are those of the source.

How the values were obtained:
[1] = HEK-293T viability loss after treatment – luminescence, T-cell screen hits, cytotoxicity control for TCR NF-kB inhibitor project, dose response (AID 489026); type: functional, cell-based;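 also: cells exposed to compound about 14 hours before the viability readout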
BJ [2] = test: cells; type: functional, cell-based; conditions: Homo sapiens
BJ [3] = test: BJ-TERT fibroblast viability loss – cell-based, RAS-independent, luminescence, dose response (AID 1933); type: functional; conditions: Homo sapiens
[4] = Luminescence Cell-Based Dose Retest to Confirm Inhibitors of Cancer Stem Cells. [Related pubchem assays (depositor defined):AID2717, AID2721]; type: functional; conditions: Homo sapiens
[5] = viability loss of HMLE_sh_eGFP cells – cell-based, luminescence, counter-screen for HMLE_sh_ECad selective toxicity project, dose response (AID 463074); type: functional, Homo sapiens;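 also: HMLE human mammary epithelial cells expressing control shRNA against eGFP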
[6] = DRD fibroblast viability loss – cell-based, non-viral oncogenic, luminescence, dose response (AID 1934); type: functional; conditions: Homo sapiens
BJ [7] = test: growth inhibition of engineered Ras-driven BJ cells – cell-based, alamar blue fluorescence, cherrypicked samples, dose response (AID 2631); type: functional; conditions: Homo sapiens;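 also: confirmatory dose-response assay in RAS-dependent BJ fibroblasts engineered with TERT, LT and ST, with cytotoxicity read by fluorescence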
[8] = molecular target: T1, Tyrosine-protein phosphatase non-receptor type 22 (Homo sapiens, UniProt Q9Y2R2); type: functional
T1 sequence (Q9Y2R2 whole entry): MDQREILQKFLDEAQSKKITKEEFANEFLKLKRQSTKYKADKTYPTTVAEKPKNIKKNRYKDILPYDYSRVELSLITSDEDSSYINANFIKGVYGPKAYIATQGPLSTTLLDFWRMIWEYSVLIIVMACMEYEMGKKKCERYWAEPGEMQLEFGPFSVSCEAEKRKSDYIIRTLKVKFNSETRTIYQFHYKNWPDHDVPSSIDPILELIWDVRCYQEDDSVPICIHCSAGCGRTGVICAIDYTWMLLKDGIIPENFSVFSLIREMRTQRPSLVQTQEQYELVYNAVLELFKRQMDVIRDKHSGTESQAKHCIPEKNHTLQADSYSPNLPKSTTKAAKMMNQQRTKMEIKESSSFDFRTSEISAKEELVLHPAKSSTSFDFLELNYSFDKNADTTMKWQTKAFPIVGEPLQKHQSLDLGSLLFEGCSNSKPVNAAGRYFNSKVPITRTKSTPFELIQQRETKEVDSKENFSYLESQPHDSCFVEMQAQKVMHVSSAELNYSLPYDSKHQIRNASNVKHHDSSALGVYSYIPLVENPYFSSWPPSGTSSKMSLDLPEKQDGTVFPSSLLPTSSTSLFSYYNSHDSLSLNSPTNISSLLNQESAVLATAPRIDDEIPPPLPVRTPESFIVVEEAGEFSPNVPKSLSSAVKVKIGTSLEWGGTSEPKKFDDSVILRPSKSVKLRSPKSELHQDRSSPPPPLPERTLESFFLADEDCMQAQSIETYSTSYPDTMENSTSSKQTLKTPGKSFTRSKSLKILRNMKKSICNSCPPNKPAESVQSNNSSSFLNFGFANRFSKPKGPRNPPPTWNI

[9] = molecular target: T2, Tyrosine-protein phosphatase non-receptor type 7 (Homo sapiens, UniProt P35236); type: functional
T2 sequence (P35236 whole entry): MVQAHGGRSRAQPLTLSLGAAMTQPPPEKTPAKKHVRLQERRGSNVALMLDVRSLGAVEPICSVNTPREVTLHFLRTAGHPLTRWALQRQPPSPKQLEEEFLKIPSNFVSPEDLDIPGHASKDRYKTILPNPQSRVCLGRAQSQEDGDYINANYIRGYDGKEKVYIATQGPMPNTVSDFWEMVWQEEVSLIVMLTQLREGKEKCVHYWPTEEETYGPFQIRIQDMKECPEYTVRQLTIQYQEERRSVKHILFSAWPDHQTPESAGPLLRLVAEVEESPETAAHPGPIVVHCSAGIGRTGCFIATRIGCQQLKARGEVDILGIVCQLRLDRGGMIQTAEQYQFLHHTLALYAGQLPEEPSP

[10] = molecular target: T1, Tyrosine-protein phosphatase non-receptor type 22; type: functional; remark: listed apart in the source
[11] = molecular target: T3, Delta-type opioid receptor (Homo sapiens, UniProt P41143); test: HTS Image-Based Screen for Agonists of the DOR Receptor. [Related pubchem assays (depositor defined):AID1777, AID1786, AID2133]; type: functional
T3 sequence (P41143 whole entry): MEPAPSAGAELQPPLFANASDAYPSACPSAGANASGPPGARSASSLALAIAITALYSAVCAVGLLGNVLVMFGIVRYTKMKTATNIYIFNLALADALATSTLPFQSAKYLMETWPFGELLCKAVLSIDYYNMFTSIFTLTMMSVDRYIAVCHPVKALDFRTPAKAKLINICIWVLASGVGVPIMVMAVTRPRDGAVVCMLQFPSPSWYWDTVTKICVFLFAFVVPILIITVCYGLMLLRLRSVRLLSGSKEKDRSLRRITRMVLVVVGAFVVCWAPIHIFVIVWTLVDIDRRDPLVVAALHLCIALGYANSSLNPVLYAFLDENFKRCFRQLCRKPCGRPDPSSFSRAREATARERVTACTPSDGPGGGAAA

[12] = molecular target: T3, Delta-type opioid receptor; test: HTS Image-Based Screen for Antagonists of the DOR Receptor. [Related pubchem assays (depositor defined):AID1777, AID1785, AID1786, AID2133]; type: functional
Mu-type opioid receptor = Mu-type opioid receptor (Homo sapiens, UniProt P35372); test: HTS Image-Based Screen for Agonists of the MOR Receptor. [Related pubchem assays (depositor defined):AID1777, AID1785, AID1786, AID2133]; type: functional;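 also: imaging of beta-arrestin GFP recruitment into spots after receptor activation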
Chain of Mu-type opioid receptor (P35372 whole entry): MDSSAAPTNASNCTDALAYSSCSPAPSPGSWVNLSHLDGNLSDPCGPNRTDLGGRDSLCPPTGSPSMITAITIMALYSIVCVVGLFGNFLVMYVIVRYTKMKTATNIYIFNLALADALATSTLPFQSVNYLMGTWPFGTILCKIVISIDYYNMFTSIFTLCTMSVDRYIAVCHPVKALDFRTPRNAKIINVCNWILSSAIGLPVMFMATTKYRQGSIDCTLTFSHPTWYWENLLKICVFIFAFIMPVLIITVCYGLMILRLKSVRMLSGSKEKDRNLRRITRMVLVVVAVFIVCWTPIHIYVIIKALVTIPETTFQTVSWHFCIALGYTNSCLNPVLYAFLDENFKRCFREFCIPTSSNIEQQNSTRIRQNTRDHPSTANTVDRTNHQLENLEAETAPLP

[13] = molecular target: T4, Ubiquitin-conjugating enzyme E2 N (Homo sapiens, UniProt P61088); type: functional;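 also: Dose-response confirmation in a TR-FRET assay detecting UBC13-driven polyubiquitin chain formation, inhibition measured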
T4 sequence (P61088 whole entry): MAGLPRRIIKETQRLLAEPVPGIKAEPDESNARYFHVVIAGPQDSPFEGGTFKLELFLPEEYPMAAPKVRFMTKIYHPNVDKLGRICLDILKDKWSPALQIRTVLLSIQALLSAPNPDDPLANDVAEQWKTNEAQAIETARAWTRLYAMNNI

Vero = test: cells; type: functional; conditions: Chlorocebus sabaeus
Beta-galactosidase = Beta-galactosidase (Escherichia coli, UniProt Q8VNN2); type: functional
Chain of Beta-galactosidase (Q8VNN2 whole entry): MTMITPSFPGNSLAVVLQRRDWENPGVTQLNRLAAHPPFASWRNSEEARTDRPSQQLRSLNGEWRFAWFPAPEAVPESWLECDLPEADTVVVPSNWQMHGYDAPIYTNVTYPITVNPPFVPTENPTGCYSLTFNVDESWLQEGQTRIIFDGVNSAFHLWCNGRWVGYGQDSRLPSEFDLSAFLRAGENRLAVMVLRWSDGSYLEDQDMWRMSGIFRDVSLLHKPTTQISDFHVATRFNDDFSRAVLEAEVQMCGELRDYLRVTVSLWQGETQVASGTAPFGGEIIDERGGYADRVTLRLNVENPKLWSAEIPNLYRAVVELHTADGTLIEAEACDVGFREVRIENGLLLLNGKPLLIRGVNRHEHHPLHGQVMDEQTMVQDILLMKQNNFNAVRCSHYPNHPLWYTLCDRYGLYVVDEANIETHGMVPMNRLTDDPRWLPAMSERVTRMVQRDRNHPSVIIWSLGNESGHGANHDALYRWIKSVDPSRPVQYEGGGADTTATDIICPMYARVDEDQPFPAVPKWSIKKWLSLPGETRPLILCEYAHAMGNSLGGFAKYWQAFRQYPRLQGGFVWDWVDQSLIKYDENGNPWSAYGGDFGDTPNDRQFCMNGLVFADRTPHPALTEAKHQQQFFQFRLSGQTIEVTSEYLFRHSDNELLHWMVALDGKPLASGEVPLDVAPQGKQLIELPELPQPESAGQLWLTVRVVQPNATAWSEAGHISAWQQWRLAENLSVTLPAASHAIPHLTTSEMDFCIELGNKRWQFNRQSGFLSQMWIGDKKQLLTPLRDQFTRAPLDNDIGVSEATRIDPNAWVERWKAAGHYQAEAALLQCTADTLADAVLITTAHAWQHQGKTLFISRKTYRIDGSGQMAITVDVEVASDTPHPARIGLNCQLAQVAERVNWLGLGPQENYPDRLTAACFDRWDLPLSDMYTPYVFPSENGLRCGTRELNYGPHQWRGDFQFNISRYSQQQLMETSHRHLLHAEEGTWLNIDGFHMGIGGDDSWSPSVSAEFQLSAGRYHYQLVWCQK

[14] = molecular target: T5, RNA-editing ligase 1, mitochondrial (Trypanosoma brucei brucei, UniProt P86926); test: inhibition of trypanosome RNA editing ligase – biochemical, fluorescence, Trypanosoma brucei, dose response (AID 1117295); type: functional
T5 sequence (P86926 whole entry): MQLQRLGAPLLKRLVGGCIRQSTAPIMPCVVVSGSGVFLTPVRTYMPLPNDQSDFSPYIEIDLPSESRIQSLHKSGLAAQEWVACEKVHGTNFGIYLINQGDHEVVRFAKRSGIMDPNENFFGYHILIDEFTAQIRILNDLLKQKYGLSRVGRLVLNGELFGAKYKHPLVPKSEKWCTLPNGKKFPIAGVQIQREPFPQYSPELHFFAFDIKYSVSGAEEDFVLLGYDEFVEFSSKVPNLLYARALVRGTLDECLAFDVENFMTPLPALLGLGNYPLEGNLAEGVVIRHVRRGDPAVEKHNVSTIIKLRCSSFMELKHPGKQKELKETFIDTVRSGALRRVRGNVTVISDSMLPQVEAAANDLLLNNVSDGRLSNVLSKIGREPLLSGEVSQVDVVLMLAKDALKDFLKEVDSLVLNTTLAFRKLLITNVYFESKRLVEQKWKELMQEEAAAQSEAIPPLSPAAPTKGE

[15] = molecular target: T6, Kappa-type opioid receptor (Homo sapiens, UniProt P41145); type: functional
T6 sequence (P41145 whole entry): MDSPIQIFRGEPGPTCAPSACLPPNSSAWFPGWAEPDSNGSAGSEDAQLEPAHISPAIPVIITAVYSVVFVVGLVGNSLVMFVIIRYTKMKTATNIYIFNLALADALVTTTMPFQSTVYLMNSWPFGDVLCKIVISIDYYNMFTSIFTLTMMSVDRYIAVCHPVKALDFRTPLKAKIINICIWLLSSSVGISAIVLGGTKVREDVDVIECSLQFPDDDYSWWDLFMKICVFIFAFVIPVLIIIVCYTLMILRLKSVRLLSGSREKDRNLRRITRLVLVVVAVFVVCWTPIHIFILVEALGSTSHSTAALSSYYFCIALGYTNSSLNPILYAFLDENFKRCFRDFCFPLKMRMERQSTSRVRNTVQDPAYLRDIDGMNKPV

[16] = molecular target: T6, Kappa-type opioid receptor; type: functional; remark: listed apart in the source
[17] = molecular target: G-protein coupled receptor 55 (Homo sapiens, UniProt Q9Y2T6); test: blockers of GPR55 signalling, imaged – imaging, image-based, counter-screen for GPR35 antagonist project, SAR follow-up (AID 2397); type: functional
Chain of G-protein coupled receptor 55 (Q9Y2T6 whole entry): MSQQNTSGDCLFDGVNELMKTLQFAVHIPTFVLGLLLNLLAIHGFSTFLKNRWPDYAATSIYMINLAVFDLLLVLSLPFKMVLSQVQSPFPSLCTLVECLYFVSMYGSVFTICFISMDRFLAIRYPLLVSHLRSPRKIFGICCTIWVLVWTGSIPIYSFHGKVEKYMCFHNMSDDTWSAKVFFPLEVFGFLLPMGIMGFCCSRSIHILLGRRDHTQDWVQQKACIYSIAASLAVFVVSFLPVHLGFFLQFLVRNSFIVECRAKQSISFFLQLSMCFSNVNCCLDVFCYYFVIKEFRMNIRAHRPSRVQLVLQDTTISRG

[18] = A549 cell cytotoxicity, dose response, cytotoxicity control, plate reader, cherry-pick, antagonist series (AID 743412); type: functional, cell-based
[19] = viability loss in HEK293 cells – cell-based, plate reader, cherry-picked samples, cytotoxicity control, dose response (AID 743446); type: functional
Protein skinhead-1 = molecular target: T7, Protein skinhead-1 (Caenorhabditis elegans, UniProt P34707); type: functional
T7 sequence (P34707 whole entry): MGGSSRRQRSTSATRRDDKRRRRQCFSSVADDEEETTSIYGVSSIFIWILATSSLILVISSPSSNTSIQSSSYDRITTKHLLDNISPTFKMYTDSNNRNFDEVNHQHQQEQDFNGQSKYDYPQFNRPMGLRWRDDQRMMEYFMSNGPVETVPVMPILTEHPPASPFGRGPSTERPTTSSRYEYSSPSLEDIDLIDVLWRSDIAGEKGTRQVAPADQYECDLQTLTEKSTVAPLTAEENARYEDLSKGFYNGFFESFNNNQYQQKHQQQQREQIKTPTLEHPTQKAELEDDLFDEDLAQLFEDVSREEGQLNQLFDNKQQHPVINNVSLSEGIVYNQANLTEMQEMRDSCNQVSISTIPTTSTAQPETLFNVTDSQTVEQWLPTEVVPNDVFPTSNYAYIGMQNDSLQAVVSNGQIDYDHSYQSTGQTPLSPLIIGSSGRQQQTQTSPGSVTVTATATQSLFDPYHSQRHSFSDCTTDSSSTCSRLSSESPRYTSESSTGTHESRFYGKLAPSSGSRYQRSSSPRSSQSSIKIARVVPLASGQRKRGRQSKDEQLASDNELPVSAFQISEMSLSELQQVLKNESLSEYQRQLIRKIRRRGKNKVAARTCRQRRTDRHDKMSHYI

[20] = molecular target: T8, Heat shock factor protein 1 (Mus musculus, UniProt P38532); test: decrease of HSF1-responsive luciferase luminescence – cell-based, NIH3T3, dose retest, confirmation (AID 2382); type: functional;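 also: NIH3T3 fibroblasts with HSF1-driven luciferase reporter stressed by proteasome inhibitor MG132; luminescence from HSF1-driven luciferase expression after 8 hours of MG132 stress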
T8 sequence (P38532 whole entry): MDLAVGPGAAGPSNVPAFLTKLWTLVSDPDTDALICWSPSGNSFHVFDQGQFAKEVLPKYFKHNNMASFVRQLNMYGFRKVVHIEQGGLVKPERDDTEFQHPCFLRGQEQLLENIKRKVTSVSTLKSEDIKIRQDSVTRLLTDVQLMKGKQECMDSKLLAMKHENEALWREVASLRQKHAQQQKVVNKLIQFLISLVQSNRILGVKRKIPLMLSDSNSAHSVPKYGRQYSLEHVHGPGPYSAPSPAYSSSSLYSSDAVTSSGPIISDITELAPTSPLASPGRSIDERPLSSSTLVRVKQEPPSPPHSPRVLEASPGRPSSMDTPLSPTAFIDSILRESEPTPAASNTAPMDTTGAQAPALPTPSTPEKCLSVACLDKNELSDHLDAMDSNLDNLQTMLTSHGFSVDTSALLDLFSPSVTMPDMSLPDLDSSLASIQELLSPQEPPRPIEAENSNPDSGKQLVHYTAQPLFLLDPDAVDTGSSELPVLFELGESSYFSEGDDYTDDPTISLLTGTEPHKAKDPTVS

[21] = loss of viability in HepG2 cells – cell-based, CellTiter-Glo, cherry-picked, cytotoxicity control for Shn3 inhibitor project, dose response (AID 624134); type: functional
[22] = HEK-293T viability loss, compound-treated – cell-based, uHTS hits, cytotoxicity control for B/T-cell NF-kB inhibitor project, dose response (AID 489019); type: functional;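 also: IC50 reflects cytotoxicity as loss of cell viability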
[23] = toxicity toward HepG2 liver cells – cell-based, plate reader, cherry-pick, antagonist series, cytotoxicity control, dose response (AID 743416); type: functional
[24] = Luminescence Cell-Based Dose Confirmation HTS to Identify Inhibitors of Platelet Dense Granule Release. [Related pubchem assays: 1663 (Primary HTS), 1678 (Summary of Project)]; type: functional
[25] = Luminescence-based counterscreen assay for KLF5 inhibitors: dose response cell-based high throughput screening assay to identify cytotoxic compounds using the IEC-6 intestinal epithelial cell line. [Related pubchem assays: 1700 (Primary screen.), 1834 (Confirmation screen.), 1858 (Summary AID.), 1905 (Counterscreen.)]; type: functional
[26] = reduction of Shn3 3'UTR-driven luciferase in osteoblasts – cell-based, Clone20 osteoblasts, firefly luciferase, cherry-picked, dose response (AID 624132); type: functional;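 also: firefly luciferase luminescence from reporter carrying the Shn3 3'UTR in osteoblasts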
[27] = non-specific 3'UTR reporter inhibition in Clone20-Shn3RL – cell-based, Renilla luciferase, cherry-picked, counter-screen for Shn3 inhibitor project, dose response (AID 624133); type: functional
BJ [28] = test: BJ-TERT-LT-ST fibroblast viability loss – cell-based, RAS-independent, luminescence, dose response (AID 1935); type: functional; conditions: Homo sapiens;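 also: BJ fibroblasts immortalized with TERT plus LT and ST oncogenes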
[29] = blockade of melanocortin 4 receptor signaling – cell-based, plate reader, cherry pick, counter-screen for LGR2 antagonist project, dose response (AID 743444); type: functional;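 also: transfected HEK 293 cells stimulated with alpha-MSH peptide; potency of inhibitors of the alpha-MSH evoked signal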
Jurkat = test: blockers of NF-kB activation in T cells – Jurkat, luciferase reporter, luminescence, B- and T-cell, dose response (AID 489004); type: functional, cell-based; conditions: Homo sapiens;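 also: NF-kB luciferase reporter Jurkat cells stimulated with PMA plus ionomycin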
[30] = blockers of bursicon-stimulated LGR2 cAMP reporter – cell-based, HEK293, CRE-luciferase reporter, cherry pick, set 2, dose response (AID 743343); type: functional;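 also: transfected cells were stimulated with diluted bursicon conditioned medium after compound addition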

SMILES: Cc1ccc(C)c(NS(=O)(=O)c2ccc(-c3cnc(C4CC4)o3)cc2)c1
- IC50 [1]: 54 µM (inactive)
- EC50 (BJ [2]): 0.298 µM (active)
- EC50 (BJ [3]): 0.15 µM (active)
- AC50 [4]: < 0.16 µM (active)
- AC50 [5]: 8.44 µM (inconclusive)
- EC50 [6]: < 0.12 µM (active)
- EC50 (BJ [7]): < 0.104 µM (active)

SMILES: O=C1OC(c2ccc(Br)cc2)=N/C1=C\c1ccco1
- IC50 [8]: > 79.4 µM (inactive)
- IC50 [9]: > 79.4 µM (inactive)
- IC50 [10]: > 79.4 µM (inactive)

SMILES: COc1ccc(C[C@H]2CN3C(=NC[C@@H]3C(C)C)N2C[C@H](C)NC(=O)c2ccc(C)c(Br)c2)cc1
- EC50 [11]: > 32 µM (inactive)
- IC50 [12]: > 32 µM (inactive)
- EC50 (Mu-type opioid receptor): > 32 µM (inactive)
- IC50 [13]: > 20 µM (inactive)
- CC50 (Vero): 16.3 µM (active)
- EC50 (Beta-galactosidase): > 31.5 µM (inactive)
- IC50 [14]: > 96.6 µM (inactive)
- IC50 [15]: 6.35 µM (active)
- IC50 [16]: 2.07 µM

SMILES: Clc1ccccc1Cn1ncc2c(N3CCN(c4ccccc4)CC3)ncnc21
- IC50 [17]: > 32 µM (inactive)

SMILES: CN(C)/N=C/c1ccc(Sc2ccc([N+](=O)[O-])cc2[N+](=O)[O-])o1
- AC50 [4]: 22.5 µM (active)
- AC50 [5]: 30.2 µM (active)

SMILES: c1ccc(-c2ccc(-c3nc(-c4ccccn4)no3)cc2)cc1
- AC50 [18]: 5.48 µM (active)
- AC50 [19]: 6.22 µM (active)
- IC50 (Protein skinhead-1): > 100 µM (inactive)
- EC50 [20]: < 0.16 µM (active)
- AC50 [21]: 5.26 µM (active)
- IC50 [22]: > 80 µM (inactive)
- AC50 [23]: 4.67 µM (active)
- EC50 [24]: 0.189 µM (active)
- EC50 (BJ [2]): 1.69 µM (active)
- EC50 (BJ [3]): 3.64 µM (active)
- IC50 [25]: 9.09 µM (active)
- AC50 [26]: 3.75 µM (active)
- AC50 [27]: 32.7 µM (active)
- EC50 (BJ [28]): 9.38 µM (inconclusive)
- EC50 [6]: 3.27 µM (active)
- AC50 [29]: 0.261 µM (active)
- EC50 (BJ [7]): > 133 µM (inactive)
- IC50 (Jurkat): 1.17 µM (active)
- AC50 [30]: 0.236 µM (active)
